Reference: patent US9932637B2, “Genetic polymorphisms associated with cardiovascular disorders and drug response, methods of detection and uses thereof” (CELERA CORPORATION, priority 2003, dated 2018)

Test system: patients with prior myocardial infarction (CARE study)
Experiment: CARE: association of SNPs with pravastatin treatment in RMI prevention (genotypic RR in placebo and statin strata; Table 10)
Assay type: in vivo, human
Source text: In order to identify genetic markers associated with acute coronary events (e.g. MI, stroke, unstable angina, congestive heart failure, etc.) or response to statin treatment for the prevention of coronary events, samples from the Cholesterol and Recurrent Events (CARE) study (a randomized multicentral double-blinded trial on secondary prevention of acute coronary events with pravastatin) (Sacks et al., 1991, Am. J. Cardiol. 68: 1436-1446) were genotyped. A well-documented myocardial infarction (MI) was one of the enrollment criteria for entry into the CARE study. Patients were enrolled in the CARE trial from 80 participating study centers. […] Patients were randomized to receive either 40 mg of pravastatin once daily or a matching placebo. The primary endpoint of the trial was death from coronary heart disease and the median duration of follow-up was 5.0 years (range, 4.0 to 6.2 years). […] Secondary endpoints of other related cardiovascular or metabolic disease events, and changes in clinical variables were also recorded in pravastatin-treated and placebo groups. All individuals included in the study had signed a written informed consent form and the study protocol was approved by the respective Institutional Review Boards (IRBs).
For genotyping SNPs in CARE patient samples, DNA was extracted from blood samples using conventional DNA extraction methods such as the QIA-amp kit from Qiagen. Genotypes were obtained on an ABI PRISM® 7900HT Sequence Detection PCR system (Applied Biosystems, Foster City, Calif.) by kinetic allele-specific PCR, similar to the method described by Germer et al. (Germer S., Holland M. J., Higuchi R. 2000, Genome Res. 10: 258-266).
For statistical analysis of association of SNPs with pravastatin treatment in RMI prevention (Table 10), effect sizes were estimated through genotypic RR, including 95% CIs. Homogeneity of Cochran-Mantel-Haenszel odds ratios was tested across pravastatin and placebo strata using the Wald test. […] (this adjustment supports independence of the SNP association from conventional risk factors). This table also provides the frequency data for the at risk allele in the columns labeled “Case Y PRIMER ALLELE Nucleotide Frequency” and “Control Y PRIMER ALLELE Nucleotide Frequency”. Allele frequencies for the cases and controls ≤0.49 indicate that the at-risk allele is the minor allele. Allele frequencies ≥0.50 indicate that the at-risk allele is the major allele. An example of a SNP associated with increased risk for an adverse cardiovascular event in the placebo group using a dominant genotypic test is hCV25644901. […] However, this same SNP was protective in the statin treated group with a RR of 0.58. An example of a SNP associated with an adverse cardiovascular event in the placebo group using the allelic association test is hCV16044337 with a RR of 1.87 for the homozygous AA genotype. This same genotype was protective in the statin treated group with a RR of 0.56.

CC[C@H](C)C(=O)O[C@H]1C[C@H](O)C=C2C=C[C@H](C)[C@H](CC[C@@H](O)C[C@@H](O)CC(=O)O)[C@H]21 [pravastatin]
RR (relative risk for RMI) (ABCA1 hCV2741051, Het(TC) stratum, Statin vs Placebo): 0.92
RR (relative risk for RMI) (ABCA1 hCV2741051, Maj Hom(CC) stratum, Statin vs Placebo): 0.59
RR (relative risk for RMI) (ABCA1 hCV2741051, Min Hom(TT) stratum, Statin vs Placebo): 1.25
RR (relative risk for RMI) (ABCA1 hCV2741051, Statin stratum, het(TC) vs. ref(CC)): 1.09
RR (relative risk for RMI) (ABCA1 hCV2741051, Statin stratum, hom(TT) vs. ref(CC)): 1.14
RR (relative risk for RMI) (ABCA1 hCV2741083, Het(TC) stratum, Statin vs Placebo, covars none): 1.51
RR (relative risk for RMI) (ABCA1 hCV2741083, Maj Hom(TT) stratum, Statin vs Placebo, covars none): 0.61
RR (relative risk for RMI) (ABCA1 hCV2741083, Min Hom(CC) stratum, Statin vs Placebo, covars none): 1.36
RR (relative risk for RMI) (ABCA1 hCV2741083, Statin stratum, het(TC)vs. ref(TT), covars none): 1.29
RR (relative risk for RMI) (ABCA1 hCV2741083, Statin stratum, hom (CC)vs. ref(TT), covars none): 1.00
RR (relative risk for RMI) (ATF6 hCV25631989, Het (TC) stratum, Statin vs Placebo): 2.43
RR (relative risk for RMI) (ATF6 hCV25631989, Maj Hom (CC) stratum, Statin vs Placebo): 0.66
RR (relative risk for RMI) (ATF6 hCV25631989, Statin stratum, het(TC) vs. ref (CC)): 1.53
RR (relative risk for RMI) (CYBA hCV2038, Het(AG) stratum, Statin vs Placebo, covars hx_smoke): 0.74
RR (relative risk for RMI) (CYBA hCV2038, Maj Hom(GG) stratum, Statin vs Placebo, covars hx_smoke): 0.55
RR (relative risk for RMI) (CYBA hCV2038, Min Hom(AA) stratum, Statin vs Placebo, covars hx_smoke): 1.38
RR (relative risk for RMI) (CYBA hCV2038, Statin stratum, het(AG) vs. ref(GG), covars hx_smoke): 1.40
RR (relative risk for RMI) (CYBA hCV2038, Statin stratum, hom(AA) vs. ref(GG), covars hx_smoke): 2.02
RR (relative risk for RMI) (EDG3 hCV25610470, Het(GA) stratum, Statin vs Placebo, covars HX_SMOKE): 0.22
RR (relative risk for RMI) (EDG3 hCV25610470, Maj Hom(GG) stratum, Statin vs Placebo, covars HX_SMOKE): 0.77
RR (relative risk for RMI) (EDG3 hCV25610470, Min Hom(AA) stratum, Statin vs Placebo, covars HX_SMOKE): 1.10
RR (relative risk for RMI) (EDG3 hCV25610470, Statin stratum, het(GA) vs. ref(GG), covars HX_SMOKE): 0.37
RR (relative risk for RMI) (F7 hCV783184, Het(TG) stratum, Statin vs Placebo): 1.10
RR (relative risk for RMI) (F7 hCV783184, Maj Hom(GG) stratum, Statin vs Placebo): 0.64
RR (relative risk for RMI) (F7 hCV783184, Min Hom(TT) stratum, Statin vs Placebo): 2.59
RR (relative risk for RMI) (F7 hCV783184, Statin stratum, het (TG) vs. ref(GG)): 1.28
RR (relative risk for RMI) (F7 hCV783184, Statin stratum, hom(TT) vs. ref(GG)): 1.65
RR (relative risk for RMI) (FCAR hCV7841642, Het(GA) stratum, Statin vs Placebo): 0.32
RR (relative risk for RMI) (FCAR hCV7841642, Maj Hom(GG) stratum, Statin vs Placebo): 0.82
RR (relative risk for RMI) (FCAR hCV7841642, Min Hom(AA) stratum, Statin vs Placebo): 1.33
RR (relative risk for RMI) (FCAR hCV7841642, Statin stratum, het(GA) vs. ref(GG)): 0.60
RR (relative risk for RMI) (FCAR hCV7841642, Statin stratum, hom (AA)vs. ref(GG)): 1.38
RR (relative risk for RMI) (FN1 hCV9506149, Het(TA) stratum, Statin vs Placebo): 0.90
RR (relative risk for RMI) (FN1 hCV9506149, Maj Hom(AA) stratum, Statin vs Placebo): 0.58
RR (relative risk for RMI) (FN1 hCV9506149, Min Hom(TT) stratum, Statin vs Placebo): 1.10
RR (relative risk for RMI) (FN1 hCV9506149, Statin stratum, het(TA) vs. ref(AA)): 1.15
RR (relative risk for RMI) (FN1 hCV9506149, Statin stratum, hom(TT) vs. ref(AA)): 1.72
RR (relative risk for RMI) (HLA-DPB1 hCV8851085, Het(GA) stratum, Statin vs Placebo, covars hx_smoke): 0.87
RR (relative risk for RMI) (HLA-DPB1 hCV8851085, Maj Hom(GG) stratum, Statin vs Placebo, covars hx_smoke): 0.58
RR (relative risk for RMI) (HLA-DPB1 hCV8851085, Min Hom(AA) stratum, Statin vs Placebo, covars hx_smoke): 2.19
RR (relative risk for RMI) (HLA-DPB1 hCV8851085, Statin stratum, het (GA)vs. ref(GG), covars hx_smoke): 1.40
RR (relative risk for RMI) (HLA-DPB1 hCV8851085, Statin stratum, hom(AA) vs. ref(GG), covars hx_smoke): 1.97
RR (relative risk for RMI) (HSPG2 hCV1603656, Het(TC) stratum, Statin vs Placebo, covars hx_smoke): 0.42
RR (relative risk for RMI) (HSPG2 hCV1603656, Maj Hom (CC) stratum, Statin vs Placebo, covars hx_smoke): 0.80
RR (relative risk for RMI) (HSPG2 hCV1603656, Statin stratum, het (TC)vs. ref(CC), covars hx_smoke): 0.65
RR (relative risk for RMI) (HSPG2 hCV1603692, Het(TC) stratum, Statin vs Placebo, covars none): 0.37
RR (relative risk for RMI) (HSPG2 hCV1603692, Maj Hom (CC) stratum, Statin vs Placebo, covars none): 0.79
RR (relative risk for RMI) (HSPG2 hCV1603692, Statin stratum, het (TC)vs. ref(CC), covars none): 0.65
RR (relative risk for RMI) (HSPG2 hCV1603697, Het(TC) stratum, Statin vs Placebo, covars none): 0.37
RR (relative risk for RMI) (HSPG2 hCV1603697, Maj Hom (CC) stratum, Statin vs Placebo, covars none): 0.80
RR (relative risk for RMI) (HSPG2 hCV1603697, Statin stratum, het (TC)vs. ref(CC), covars none): 0.65
